Common to all, as to assay type: functional
One assay has as its system Escherichia coli. Nature of the assay: Antibacterial activity against Escherichia coli ATCC 25922 incubated for 24 hrs by CLSI protocol based broth microdilution method. The following applies: ATCC 25922, 24 h. A general note: Broth dilution looks for growth in wells or tubes with falling amounts of substance.
For a further assay, the system named is Bacillus subtilis. In words: Antibacterial activity against Bacillus subtilis ATCC 9372 incubated for 24 hrs by CLSI protocol based broth microdilution method. The following applies: ATCC 9372, 24 h.
For assay [1], the system named is Staphylococcus aureus. Nature of the assay: Antibacterial activity against Staphylococcus aureus clinical isolate incubated for 24 hrs by CLSI protocol based broth microdilution method.
Assay [2] has as its system Staphylococcus aureus. In words: Antibacterial activity against penicillin-resistant Staphylococcus aureus clinical isolate incubated for 24 hrs by CLSI protocol based broth microdilution method.
Assay [3] relates to Staphylococcus aureus. Nature of the assay: Antibacterial activity against methicillin-resistant Staphylococcus aureus ATCC 43300 incubated for 24 hrs by CLSI protocol based broth microdilution method. Conditions: ATCC 43300, 24 h.
The test system of a further assay is Pseudomonas aeruginosa. In words: Antibacterial activity against Pseudomonas aeruginosa ATCC 27853 incubated for 24 hrs by CLSI protocol based broth microdilution method. Conditions: ATCC 27853, 24 h.
Assay [4] concerns Staphylococcus aureus. Nature of the assay: Antibacterial activity against Staphylococcus aureus ATCC 25923 incubated for 24 hrs by CLSI protocol based broth microdilution method. Conditions: ATCC 25923, 24 h.
The test system of the next assay is Bacillus pumilus. Nature of the assay: Antibacterial activity against Bacillus pumilus CMCC63202 incubated for 24 hrs by CLSI protocol based broth microdilution method. The following applies: CMCC63202, 24 h.

This note sets out measurements from ChEMBL document CHEMBL4387753 (Bioorg Med Chem, 2019).

Converted amounts (≈) assume the structure as drawn. A value given as a limit tells only on which side of the number the result lay.

Regarding `Cc1cccc(-n2nc(COc3ccc(F)c(C(N)=O)c3F)oc2=O)c1`, the minimum inhibitory concentration (MIC) against Escherichia coli was above 64 µg/mL; with Bacillus subtilis, 16 µg/mL (≈ 44.3 µM); in the assay on Staphylococcus aureus [1], 64 µg/mL (≈ 177 µM); against Staphylococcus aureus [2] it was above 64 µg/mL; against Staphylococcus aureus [3] it was 64 µg/mL (≈ 177 µM); in the assay on Pseudomonas aeruginosa it was above 64 µg/mL. In addition, the MIC against Staphylococcus aureus [4] and with Bacillus pumilus was 64 µg/mL (≈ 177 µM) throughout.

Consider `CC(C)(C)c1ccc(N2N=C(COc3ccc(F)c(C(N)=O)c3F)CC2=O)cc1`, for which the MIC is above 64 µg/mL in the assay on Escherichia coli; above 64 µg/mL in the assay on Bacillus subtilis; 64 µg/mL (≈ 159 µM) with Staphylococcus aureus [2]; above 64 µg/mL against Staphylococcus aureus [3]; above 64 µg/mL with Pseudomonas aeruginosa; above 64 µg/mL in the assay with Staphylococcus aureus [4]. The same compound displayed a minimal inhibitory concentration (MIC) against Bacillus pumilus above 64 µg/mL.

Regarding `NC(=O)c1c(F)ccc(OCC2=NN(c3ccc(Cl)cc3)C(=O)C2)c1F`, the minimal inhibitory concentration (MIC) with Escherichia coli, with Bacillus subtilis, in the assay with Staphylococcus aureus [2], with Staphylococcus aureus [3], in the assay on Pseudomonas aeruginosa and with Staphylococcus aureus [4] was above 64 µg/mL throughout. This compound also returned a minimal inhibitory concentration (MIC) in the assay with Bacillus pumilus above 64 µg/mL.

Turning to `Cc1ccc(-n2nc(COc3ccc(F)c(C(N)=O)c3F)oc2=O)c(C)c1`, the MIC is above 64 µg/mL with Escherichia coli; 2 µg/mL (≈ 5.33 µM) in the assay with Bacillus subtilis; 32 µg/mL (≈ 85.3 µM) against Staphylococcus aureus [1]; 64 µg/mL (≈ 171 µM) against Staphylococcus aureus [2]; 16 µg/mL (≈ 42.6 µM) in the assay on Staphylococcus aureus [3]; above 64 µg/mL in the assay on Pseudomonas aeruginosa. Also, the minimal inhibitory concentration (MIC) against Staphylococcus aureus [4] came out at 32 µg/mL (≈ 85.3 µM); in the assay on Bacillus pumilus, 2 µg/mL (≈ 5.33 µM).

Turning to `CCc1ccc(-n2nc(COc3ccc(F)c(C(N)=O)c3F)oc2=O)cc1`, the MIC is above 64 µg/mL in the assay on Escherichia coli; 0.5 µg/mL (≈ 1.33 µM) against Bacillus subtilis; 2 µg/mL (≈ 5.33 µM) in the assay with Staphylococcus aureus [1]; 4 µg/mL (≈ 10.7 µM) with Staphylococcus aureus [2]; 2 µg/mL (≈ 5.33 µM) with Staphylococcus aureus [3]; above 64 µg/mL against Pseudomonas aeruginosa. Moreover, the MIC stood at 2 µg/mL (≈ 5.33 µM) in the assay with Staphylococcus aureus [4] and 4 µg/mL (≈ 10.7 µM) against Bacillus pumilus.

With `COc1cccc(-n2nc(COc3ccc(F)c(C(N)=O)c3F)oc2=O)c1`, the MIC with Escherichia coli was above 64 µg/mL; in the assay with Bacillus subtilis, 16 µg/mL (≈ 42.4 µM); with Staphylococcus aureus [1] it was 64 µg/mL (≈ 170 µM); with Staphylococcus aureus [2], above 64 µg/mL; with Staphylococcus aureus [3], above 64 µg/mL; in the assay on Pseudomonas aeruginosa, above 64 µg/mL. Also, the minimum inhibitory concentration (MIC) was 64 µg/mL (≈ 170 µM) against Staphylococcus aureus [4] and above 64 µg/mL with Bacillus pumilus.

Regarding `NC(=O)c1c(F)ccc(OCc2nn(-c3ccc(Cl)cc3)c(=O)o2)c1F`, the MIC against Escherichia coli is above 64 µg/mL; in the assay with Bacillus subtilis, 0.25 µg/mL (≈ 0.655 µM); against Staphylococcus aureus [1], 2 µg/mL (≈ 5.24 µM); against Staphylococcus aureus [2], 2 µg/mL (≈ 5.24 µM); with Staphylococcus aureus [3], 2 µg/mL (≈ 5.24 µM); in the assay on Pseudomonas aeruginosa, above 64 µg/mL. In addition, the minimal inhibitory concentration (MIC) in the assay with Staphylococcus aureus [4] was determined as 1 µg/mL (≈ 2.62 µM); against Bacillus pumilus, 2 µg/mL (≈ 5.24 µM).

For the compound `Cc1ccc(-n2nc(COc3ccc(F)c(C(N)=O)c3F)oc2=O)cc1`, the MIC with Escherichia coli is above 64 µg/mL; against Bacillus subtilis it was 0.5 µg/mL (≈ 1.38 µM); against Staphylococcus aureus [1], 4 µg/mL (≈ 11.1 µM); with Staphylococcus aureus [2], 4 µg/mL (≈ 11.1 µM); against Staphylococcus aureus [3], 4 µg/mL (≈ 11.1 µM); in the assay with Pseudomonas aeruginosa, above 64 µg/mL. The minimal inhibitory concentration (MIC) against Staphylococcus aureus [4] was found to be 4 µg/mL (≈ 11.1 µM); in the assay on Bacillus pumilus it was 8 µg/mL (≈ 22.1 µM).

On to `CCCCn1c(COc2ccc(F)c(C(N)=O)c2F)nn(-c2ccc(Br)cc2)c1=O`, for which the MIC against Escherichia coli, against Bacillus subtilis, with Staphylococcus aureus [2], against Staphylococcus aureus [3], in the assay with Pseudomonas aeruginosa and in the assay with Staphylococcus aureus [4] was above 64 µg/mL in each case. The minimal inhibitory concentration (MIC) in the assay on Bacillus pumilus is above 64 µg/mL.

Consider `NC(=O)c1c(F)ccc(OCc2nn(-c3ccc(Br)cc3)c(=O)n2N)c1F`, for which the minimal inhibitory concentration (MIC) against Escherichia coli is above 64 µg/mL; in the assay with Bacillus subtilis, 16 µg/mL (≈ 36.3 µM); against Staphylococcus aureus [2] it was above 64 µg/mL; against Staphylococcus aureus [3], above 64 µg/mL; in the assay on Pseudomonas aeruginosa, above 64 µg/mL; in the assay with Staphylococcus aureus [4] it was above 64 µg/mL. Besides, the minimum inhibitory concentration (MIC) with Bacillus pumilus came out at 64 µg/mL (≈ 145 µM).

For the compound `NC(=O)c1c(F)ccc(OCc2nn(-c3ccccc3)c(=O)o2)c1F`, the minimum inhibitory concentration (MIC) against Escherichia coli was above 64 µg/mL; against Bacillus subtilis, 4 µg/mL (≈ 11.5 µM); in the assay on Staphylococcus aureus [1], 16 µg/mL (≈ 46.1 µM); with Staphylococcus aureus [2], 32 µg/mL (≈ 92.1 µM); against Staphylococcus aureus [3], 16 µg/mL (≈ 46.1 µM); against Pseudomonas aeruginosa, above 64 µg/mL. Further, the MIC with Staphylococcus aureus [4] came out at 16 µg/mL (≈ 46.1 µM); against Bacillus pumilus it was 64 µg/mL (≈ 184 µM).

Regarding `CCCn1c(COc2ccc(F)c(C(N)=O)c2F)nn(-c2ccc(Br)cc2)c1=O`, the minimum inhibitory concentration (MIC) was above 64 µg/mL in the assay on Escherichia coli; 32 µg/mL (≈ 68.5 µM) against Bacillus subtilis; above 64 µg/mL in the assay with Staphylococcus aureus [2]; 32 µg/mL (≈ 68.5 µM) with Staphylococcus aureus [3]; above 64 µg/mL in the assay with Pseudomonas aeruginosa; above 64 µg/mL in the assay with Staphylococcus aureus [4]. Moreover, the minimal inhibitory concentration (MIC) in the assay with Bacillus pumilus was above 64 µg/mL.

On to `CCCCCCCCn1c(COc2ccc(F)c(C(N)=O)c2F)nn(-c2ccc(Br)cc2)c1=O`, for which the minimum inhibitory concentration (MIC) with Escherichia coli, in the assay with Bacillus subtilis, with Staphylococcus aureus [2], in the assay on Staphylococcus aureus [3], in the assay with Pseudomonas aeruginosa and in the assay with Staphylococcus aureus [4] was above 64 µg/mL in each case. This compound displayed an MIC against Bacillus pumilus above 64 µg/mL.

On to `CN(C)n1c(COc2ccc(F)c(C(N)=O)c2F)nn(-c2ccc(Br)cc2)c1=O`, for which the MIC is above 64 µg/mL against Escherichia coli; 32 µg/mL (≈ 68.3 µM) in the assay on Bacillus subtilis; 32 µg/mL (≈ 68.3 µM) in the assay on Staphylococcus aureus [2]; 16 µg/mL (≈ 34.2 µM) against Staphylococcus aureus [3]; above 64 µg/mL in the assay on Pseudomonas aeruginosa; 32 µg/mL (≈ 68.3 µM) against Staphylococcus aureus [4]. The compound also came in with a minimal inhibitory concentration (MIC) against Bacillus pumilus of 32 µg/mL (≈ 68.3 µM).

Consider `CC(C)CCn1c(COc2ccc(F)c(C(N)=O)c2F)nn(-c2ccc(Br)cc2)c1=O`, for which the MIC with Escherichia coli, in the assay with Bacillus subtilis, against Staphylococcus aureus [2], in the assay on Staphylococcus aureus [3], against Pseudomonas aeruginosa and in the assay on Staphylococcus aureus [4] was above 64 µg/mL in each case. In addition, the MIC against Bacillus pumilus was above 64 µg/mL.

In the case of `Cn1c(COc2ccc(F)c(C(N)=O)c2F)nn(-c2ccc(Br)cc2)c1=O`, the minimum inhibitory concentration (MIC) was above 64 µg/mL in the assay with Escherichia coli; 64 µg/mL (≈ 146 µM) with Bacillus subtilis; above 64 µg/mL against Staphylococcus aureus [2]; above 64 µg/mL against Staphylococcus aureus [3]; above 64 µg/mL in the assay with Pseudomonas aeruginosa; above 64 µg/mL against Staphylococcus aureus [4]. In the assay with Bacillus pumilus, this compound yielded an MIC of 1 µg/mL (≈ 2.28 µM).

Turning to `NC(=O)c1c(F)ccc(OCc2nn(-c3ccc(Br)cc3)c(=O)n2Cc2ccccc2)c1F`, the MIC against Escherichia coli, against Bacillus subtilis, in the assay on Staphylococcus aureus [2], against Staphylococcus aureus [3], against Pseudomonas aeruginosa and against Staphylococcus aureus [4] was above 64 µg/mL in each case. The minimum inhibitory concentration (MIC) with Bacillus pumilus was above 64 µg/mL.

As for `CC[C@H]1OC(=O)[C@H](C)[C@@H](O[C@H]2C[C@@](C)(OC)[C@@H](O)[C@H](C)O2)[C@H](C)[C@@H](O[C@@H]2O[C@H](C)C[C@H](N(C)C)[C@H]2O)[C@](C)(O)C[C@@H](C)C(=O)[C@H](C)[C@@H](O)[C@]1(C)O` [ERYTHROMYCIN], the minimum inhibitory concentration (MIC) in the assay with Escherichia coli is 16 µg/mL (≈ 21.8 µM); in the assay with Bacillus subtilis it was at most 0.125 µg/mL; against Staphylococcus aureus [1], above 64 µg/mL; with Staphylococcus aureus [3] it was above 64 µg/mL; in the assay with Pseudomonas aeruginosa it was 32 µg/mL (≈ 43.6 µM); against Staphylococcus aureus [4], at most 0.125 µg/mL. The MIC against Bacillus pumilus was at most 0.125 µg/mL.

As to `CC(C)Cn1c(COc2ccc(F)c(C(N)=O)c2F)nn(-c2ccc(Br)cc2)c1=O`, the MIC in the assay with Escherichia coli, against Bacillus subtilis, against Staphylococcus aureus [2], with Staphylococcus aureus [3], against Pseudomonas aeruginosa and with Staphylococcus aureus [4] was above 64 µg/mL throughout. In addition, in the assay with Bacillus pumilus, the MIC is above 64 µg/mL.

In the case of `CCCCc1ccc(N2N=C(COc3ccc(F)c(C(N)=O)c3F)CC2=O)cc1`, the MIC is above 64 µg/mL against Escherichia coli; above 64 µg/mL against Bacillus subtilis; 64 µg/mL (≈ 159 µM) in the assay on Staphylococcus aureus [2]; above 64 µg/mL in the assay on Staphylococcus aureus [3]; above 64 µg/mL in the assay on Pseudomonas aeruginosa; above 64 µg/mL in the assay on Staphylococcus aureus [4]. In the assay on Bacillus pumilus, this compound gave a minimal inhibitory concentration (MIC) above 64 µg/mL.

Usually MIC stands for the smallest concentration in the dilution series that meets the test's criterion for growth inhibition. Higher therefore signals weaker potency.
